≈ marks a conversion by molar mass, not a printed value. Where two headings read alike, the source gives them in different places.
Legend:
OLE1 promoter = assay: OLE1 promoter-lacZ reporter induction (chemiluminescence); type: cell-based, S. cerevisiae
Source text: (§1) The OLE1, YOL101c, and YGL039w promoters (along with their respective ATG translation start sites) each were, individually, flised to a lacZ reporter gene (which lacked an ATG translation start site) and introduced in the vector pRS415. The resulting reporter plasmids were then, separately, introduced into a multi-drug resistant yeast strain, thereby producing PL1, P41, and Ml, which are identical to each other except that PL1 carries the […], and M1 carries the YGL039w promoter (Millennium Pharmaceuticals, Inc., MMB#1495, 1497 and 1604, respectively). These yeast strains can be readily used to measure the level of activity of the OLE1, YOL101c, or YGL039w promoter by measuring expression of the lacZ gene. Enzymatic and colorimetric assays for measuring lacZ gene expression are well known in the art and can be used in the invention.
For example, the test compounds can be tested at concentrations of 25 μM and 100 μM. In a convenient high throughput screening method, the test compounds can be assayed in the wells of a multiple-well (e.g., 96-well) plastic plate (e.g., Packard, Inc. Cat. # 6005181), with each well containing a different test compound. Thus, one plate can contain the test compounds at a concentration of 25 μM, while another plate contains the test compounds at a concentration of 100 μM. Each well also contains up to 2.5% DMSO.
Cerulenin is used as a positive control in wells lacking a test compound. A stock solution of cerulenin (2,3-Epoxy-4-oxo-[…]) can be prepared to a concentration of 10 mg/ml in DMSO and stored at −20° C.
Induction of OLE1 Promoter Activity: The yeast glycerol stocks described above are used to prepare fresh yeast cultures that are used in the screening assays. The cell suspension, if frozen, is thawed at 37° C., and 33 μl of the stock is added to 12 ml of SC-Leu medium. The culture then is incubated in a shaking Erlemneyer flask at 30° C. overnight (approximately 14-15 hours). The OD600 of the culture then is measured, with a culture having an OD600 of 0.05-0.15 being suitable for use. […] 1; if necessary, the culture can be diluted with SC-Leu medium to obtain the desired OD600. A 100 μI aliquot of the yeast culture then is added to each well of the 96-well plate containing a test compound, and the cultures are incubated at 30° C. for approximately 6 hours.
To assay for an increase in the activity of the OLE1 promoter, an increase in the level of the lacZ reporter gene expression is measured. A 100 μl aliquot of 2 X substrate buffer is added to each well of the plate. To produce a 100 ml sample of 2 X substrate buffer, the following components are mixed within 1 hour of use, and kept at room temperature: 4.0 ml of GALACTON-STAR™ substrate ((3-chloro-5-(4-methoxyspiro { 1,2-dioxetane-3,2′-(4′chloro)-tricyclo-[3.3.1.1 ^3,7] decan} -4-yl)phenyl-B-D-galactopyranoside); Tropix, Inc., Cat. #GS100), 20.0 ml of SAPHIRE II™ luminescence signal enhancer (Tropix, Inc., Cat. #LAX250), and 76 ml of Lysis Buffer (0.026% Na Deoxycholic acid, 0.053% CTAB, 265 mM NaCl, 395 mM HEPES, pH 7.5). The plates are incubated at room temperature for 45 minutes, before vortexing them for 30 seconds at a low to moderate speed.
A chemiluminescent signal is produced by reaction of β-galactosidase with the substrate. Chemiluminescence can be measured using a TopCount-HTS, with the data mode set to measure […], and with a count time of 0.1 minute. Generally, chemiluminescence should be measured before significant signal decay occurs (i.e., within approximately 90 minutes of initiating the reaction).
Screening plates containing 80,000 individual small molecule compounds (comprising a diversity file) were prepared at concentrations of 100 μM in 96-well plastic clear-bottom plates (Packard, Inc. Cat. # 6005181).

YOL101c promoter = assay: YOL101c promoter-lacZ reporter induction (chemiluminescence); type: cell-based, S. cerevisiae
Source text: as §1

YGL039w promoter = assay: YGL039w promoter-lacZ reporter induction; type: cell-based, S. cerevisiae
Source text: as §1
Having determined that antiflingal agents like cerulenin increase the activity of the OLE1 and YOL101 c promoters, yeast strains containing one or both promoters each operably linked to a reporter gene (e.g., lacZ) can be used in a method for determining whether a test compound is an inhibitor of fungal fatty acid synthesis and is thus a candidate antifungal agent. Such a method can be carried out as follows. […]

S. cerevisiae mdr mutant = assay: Fungal growth inhibition (OD600) / MIC testing; type: cell-based; settings: for MIC: Saccharomyces cerevisiae
Description: Assay of Fungal Growth Inhibition: If desired, the ability of each candidate compound to inhibit fungal growth can readily be measured as follows. After incubating the yeast cultures and test compounds for 6 hours in the 96-well plates, as described above, the OD600 of the plates is measured (e.g., using a Wallac/Victor 2 plate reader). The OD600 can be measured before or after the above-described chemiluminescent assay. A test compound that decreases the OD600 of a yeast culture, relative to the OD600 obtained in the absence of the candidate compound, is an antifungal agent.
For the assay, the reporter strains were grown at 30° C. overnight (approximately 14-15 hours) in SC-Leu medium. Typically, the cultures were grown to an OD600 of 0.1, though cells at OD600 of 0.05-0.15 were also appropriate. Plates were then seeded with a 100 μl aliquot of the yeast culture and incubated at 30° C. for approximately 6 hours. To identify antifungal compounds (those affording growth inhibition), the OD600 was measured using a Wallac/Victor 2 plate reader.
The library of 80,000 small molecule compounds was screened for FAS inhibitors at concentration of 100 μM with the Pole1-lacZ reporter strain. Hits were defined as compounds that afforded 2-fold Pole1-lacZ induction. The primary screen yielded 850 hits (1.1% hit rate) as defined above. Among these, 182 were deemed structurally acceptable and subjected to retesting using the same Pole1-IacZ induction assay and an antifungal assay by growth inhibition in MIC testing.

[1] = biological target: T1, Saccharomyces cerevisiae FAS complex (Saccharomyces cerevisiae, UniProt P07149+P19097); assay: FAS assay measuring NADPH oxidation; type: biochemical
T1 construct: A FAS assay using partially purified S. cerevisiae FAS complex was used to measure NADPH oxidation; tissue Sigma; host or cells: yeast extract (Sigma), FAS complex partially purified after Stoops et al. 1978
Description: In another inhibition assay, Saccharomyces cerevisiae FAS complex was obtained from a yeast extract (Sigma) and assayed as described in (Stoops et al., J.B.C., 253:4464-4475, 1978). A crude preparation of Candida albicans FAS can be prepared from a 1-21 YPD overnight culture of SC5314 following essentially the protocol used for S. cerevisiae FAS, with the exception that the last purification step by gel filtration was omitted. The assay cocktail contains: 0.14 mM NADPH, 0.36 mM acetyl-CoA, 0.18 mM malonyl-CoA, 5 mM EDTA, 8 mM DTT, 0.1 M MES pH 6, 100 μM compound in 1% DMSO, and fungal FAS extract. Changes in NADPH oxidation are followed for 1 hour using a BMG fluorimeter set at 340 nm excitation and 460 nm emission. The inhibition of fatty acid synthesis in these assays is expressed as a percent activity compared to the one obtained using 1% DMSO.
A FAS assay using partially purified S. cerevisiae FAS complex was used to measure NADPH oxidation as described herein.

[2] = tested on: S. cerevisiae MMB1493 or C. albicans SC5314 or Y01.06; assay: 14C-acetate incorporation into fatty acids; type: cell-based; settings: 10 minutes preincubation, 10 minutes with 14C-acetate, 30° C.
Description: Generally, ^14C-acetate incorporation is measured essentially as described in Kuhajda et al., P.N.A.S., 91:6379-6383, 1994. Logarithmically growing cells (4^8 cells of S. cerevisiae MMB1493 or C. albicans SC5314 or Y01.06) were preincubated with 100 μM compounds in DMSO for 10 minutes at 30° C. ^14C-Acetate was added to 20 μCi, mixed and further incubated for 10 minutes at 30° C. Fatty acids were recovered by alkaline ethanolysis (7.5% KOH in 90% ethanol, 1 00ul) at 50° C. for 1 hour, followed by acidification with concentrated HCl (15 μl) and petroleum ether extraction. The radioactivity in the organic layer was counted using a Beckman LS650 multipurpose scintillation counter using Betamax (ICN) scintillation fluid. Cerulenin was used as control at 100 μM; at this concentration 80-90% inhibition was routinely observed in this assay.

[3] = tested on: OLE1, YOL101c, and YGL039w genes; assay: Transcriptional profiling (TxP) of yeast treated with FAS inhibitor; type: cell-based; settings: 0.1, 0.2 and 0.3 μM; 3 and 5 hour time points
Description: Logarithmically growing hypersensitive yeast MMB 1489 (Δpdr5 Δsnq2) cells were treated with cerulenin at 0.5 X, 1 X, and 1.5 X the MIC value (0.1, 0.2 and 0.3 μM) and cells were harvested at 1, 3 and 5 hour time points following drug treatment. Total RNA was obtained from cell pellets treated with 0.1, 0.2, and 0.3 μM cerulenin. […] Following hybridization, the data was normalized, filtered and analyzed.

T1 sequence (P07149 whole entry): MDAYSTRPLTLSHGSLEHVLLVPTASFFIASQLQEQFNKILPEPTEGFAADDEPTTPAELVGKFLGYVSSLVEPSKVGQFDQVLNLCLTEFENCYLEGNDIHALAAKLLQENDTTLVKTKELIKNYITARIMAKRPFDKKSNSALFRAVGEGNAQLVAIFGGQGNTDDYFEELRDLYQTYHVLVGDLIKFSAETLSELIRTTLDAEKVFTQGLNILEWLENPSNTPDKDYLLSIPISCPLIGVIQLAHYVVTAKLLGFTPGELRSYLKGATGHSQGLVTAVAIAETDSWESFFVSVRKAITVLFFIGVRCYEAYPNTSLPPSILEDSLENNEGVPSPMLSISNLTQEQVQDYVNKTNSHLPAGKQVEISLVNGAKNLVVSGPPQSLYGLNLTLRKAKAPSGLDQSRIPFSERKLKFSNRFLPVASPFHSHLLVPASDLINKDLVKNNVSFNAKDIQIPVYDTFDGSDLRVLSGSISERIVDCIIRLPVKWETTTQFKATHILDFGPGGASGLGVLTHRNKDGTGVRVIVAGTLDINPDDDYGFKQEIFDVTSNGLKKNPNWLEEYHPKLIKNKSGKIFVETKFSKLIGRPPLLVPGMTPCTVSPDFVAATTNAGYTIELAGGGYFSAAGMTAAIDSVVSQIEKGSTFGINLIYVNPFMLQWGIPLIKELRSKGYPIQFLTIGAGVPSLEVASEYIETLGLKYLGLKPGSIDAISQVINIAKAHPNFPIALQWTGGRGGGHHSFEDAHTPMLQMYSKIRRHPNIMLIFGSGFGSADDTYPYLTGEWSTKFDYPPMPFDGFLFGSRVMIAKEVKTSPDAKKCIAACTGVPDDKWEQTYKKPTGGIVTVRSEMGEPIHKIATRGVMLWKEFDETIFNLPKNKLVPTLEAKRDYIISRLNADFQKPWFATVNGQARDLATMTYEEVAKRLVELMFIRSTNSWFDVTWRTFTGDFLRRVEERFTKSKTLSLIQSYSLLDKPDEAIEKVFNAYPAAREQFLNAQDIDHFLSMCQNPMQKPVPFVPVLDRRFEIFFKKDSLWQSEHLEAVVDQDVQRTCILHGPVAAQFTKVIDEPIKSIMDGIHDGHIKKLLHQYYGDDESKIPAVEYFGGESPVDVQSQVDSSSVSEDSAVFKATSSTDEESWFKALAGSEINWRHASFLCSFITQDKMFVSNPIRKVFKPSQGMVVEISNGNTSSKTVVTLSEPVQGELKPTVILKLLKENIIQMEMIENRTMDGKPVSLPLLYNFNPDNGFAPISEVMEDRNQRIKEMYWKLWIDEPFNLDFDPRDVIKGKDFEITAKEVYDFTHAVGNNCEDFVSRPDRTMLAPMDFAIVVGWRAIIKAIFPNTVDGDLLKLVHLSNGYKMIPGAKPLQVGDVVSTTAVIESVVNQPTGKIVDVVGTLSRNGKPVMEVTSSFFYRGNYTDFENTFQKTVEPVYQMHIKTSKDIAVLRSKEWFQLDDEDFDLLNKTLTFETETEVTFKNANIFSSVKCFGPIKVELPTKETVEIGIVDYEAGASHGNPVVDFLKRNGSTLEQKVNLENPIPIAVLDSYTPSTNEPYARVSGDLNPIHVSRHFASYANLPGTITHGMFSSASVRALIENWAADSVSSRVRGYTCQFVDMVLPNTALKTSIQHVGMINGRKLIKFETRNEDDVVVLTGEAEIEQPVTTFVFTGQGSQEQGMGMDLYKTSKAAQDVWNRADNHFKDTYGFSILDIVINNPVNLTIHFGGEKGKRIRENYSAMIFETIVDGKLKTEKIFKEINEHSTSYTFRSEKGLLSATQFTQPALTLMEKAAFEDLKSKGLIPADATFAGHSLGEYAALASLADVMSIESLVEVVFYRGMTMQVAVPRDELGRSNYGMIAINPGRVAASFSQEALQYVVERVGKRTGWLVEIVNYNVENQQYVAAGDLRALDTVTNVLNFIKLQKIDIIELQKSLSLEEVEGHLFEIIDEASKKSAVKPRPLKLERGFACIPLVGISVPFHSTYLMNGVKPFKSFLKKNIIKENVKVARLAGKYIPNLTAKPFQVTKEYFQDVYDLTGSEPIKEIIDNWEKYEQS
T1 sequence (P19097 whole entry): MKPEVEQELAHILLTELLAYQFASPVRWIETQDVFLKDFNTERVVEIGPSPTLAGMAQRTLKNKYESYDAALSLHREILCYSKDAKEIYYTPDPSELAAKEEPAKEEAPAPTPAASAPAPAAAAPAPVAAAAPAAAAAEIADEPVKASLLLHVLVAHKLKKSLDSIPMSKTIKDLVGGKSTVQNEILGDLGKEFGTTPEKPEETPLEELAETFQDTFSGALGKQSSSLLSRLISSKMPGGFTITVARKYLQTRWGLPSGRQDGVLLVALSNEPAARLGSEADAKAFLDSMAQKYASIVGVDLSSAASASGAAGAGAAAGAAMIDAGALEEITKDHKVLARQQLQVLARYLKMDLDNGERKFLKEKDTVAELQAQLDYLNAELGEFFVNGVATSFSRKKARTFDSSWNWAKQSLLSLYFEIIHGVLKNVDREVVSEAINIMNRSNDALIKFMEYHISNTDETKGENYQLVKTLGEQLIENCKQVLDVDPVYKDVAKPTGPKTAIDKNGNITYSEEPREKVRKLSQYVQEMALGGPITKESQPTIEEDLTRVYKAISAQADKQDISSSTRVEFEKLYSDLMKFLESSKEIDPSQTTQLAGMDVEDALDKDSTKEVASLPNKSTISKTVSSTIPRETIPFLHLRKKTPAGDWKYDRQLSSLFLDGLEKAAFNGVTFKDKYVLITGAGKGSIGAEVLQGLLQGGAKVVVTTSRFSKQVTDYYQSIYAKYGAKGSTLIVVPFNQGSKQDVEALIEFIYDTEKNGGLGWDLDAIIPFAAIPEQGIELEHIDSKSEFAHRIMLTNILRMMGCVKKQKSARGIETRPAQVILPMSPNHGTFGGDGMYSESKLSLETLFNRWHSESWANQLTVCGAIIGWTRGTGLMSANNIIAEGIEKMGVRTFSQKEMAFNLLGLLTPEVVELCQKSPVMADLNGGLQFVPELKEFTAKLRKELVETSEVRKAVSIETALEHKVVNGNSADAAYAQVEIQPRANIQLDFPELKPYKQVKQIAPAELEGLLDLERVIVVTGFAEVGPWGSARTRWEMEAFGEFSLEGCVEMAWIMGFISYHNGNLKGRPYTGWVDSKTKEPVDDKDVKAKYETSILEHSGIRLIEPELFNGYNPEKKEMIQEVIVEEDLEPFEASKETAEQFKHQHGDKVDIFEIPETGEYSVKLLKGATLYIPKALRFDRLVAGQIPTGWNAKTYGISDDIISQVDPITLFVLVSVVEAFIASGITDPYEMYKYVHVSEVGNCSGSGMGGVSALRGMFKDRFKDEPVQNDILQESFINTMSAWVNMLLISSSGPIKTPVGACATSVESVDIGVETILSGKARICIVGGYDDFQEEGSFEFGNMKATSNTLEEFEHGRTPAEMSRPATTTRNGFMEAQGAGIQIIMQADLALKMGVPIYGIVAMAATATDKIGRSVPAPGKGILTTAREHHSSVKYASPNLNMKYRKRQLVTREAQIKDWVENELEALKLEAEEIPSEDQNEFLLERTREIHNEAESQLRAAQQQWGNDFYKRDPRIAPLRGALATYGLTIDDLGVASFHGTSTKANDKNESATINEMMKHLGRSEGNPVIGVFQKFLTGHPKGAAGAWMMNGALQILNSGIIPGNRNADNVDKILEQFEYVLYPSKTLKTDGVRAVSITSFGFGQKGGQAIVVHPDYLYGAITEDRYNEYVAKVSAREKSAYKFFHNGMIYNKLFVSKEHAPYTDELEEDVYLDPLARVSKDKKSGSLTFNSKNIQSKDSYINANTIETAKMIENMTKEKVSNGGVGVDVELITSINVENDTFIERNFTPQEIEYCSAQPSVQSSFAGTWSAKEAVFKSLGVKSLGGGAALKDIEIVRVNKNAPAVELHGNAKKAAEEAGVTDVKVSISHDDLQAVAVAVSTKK

`C/C=C/C/C=C/CCC(=O)[C@H]1O[C@H]1C(N)=O` [Cerulenin, 2,3-Epoxy-4-oxo-7,1-dodecadienamide] was tested, and the “lacZ gene expression, OLE1 promoter strain” value (OLE1 promoter) was “increase in lacZ gene expression”, the “induction of promoter activity” value (OLE1 promoter; 0.2 μg/ml) was “partial induction of promoter activity” and the “induction of promoter activity” value (OLE1 promoter; 0.9 μM) was 50%. For the same compound, the “increase in the level of chemiluminescence relative to uninduced control” value (OLE1 promoter; 2.0 μg/ml) was 100 fold, the “induction of promoter activity” value (OLE1 promoter; 2.0 μg/ml) was “maximum induction of promoter activity” and the “induction of promoter activity” value (OLE1 promoter; 9 μM) was “maximum induction of promoter activity”. The increase in chemiluminescence (OLE1 promoter; 9 μM, OLE1 promoter strain) was 100-300 fold, the “OLE1 Fold-induction (100 μM)” value (OLE1 promoter; 100 μM, Pole1-lacZ reporter strain) was 479 Fold and the “lacZ gene expression, YOL101c promoter strain” value (YOL101c promoter) was “increase in lacZ gene expression”. The increase in chemiluminescence (YOL101c promoter; 9 μM, YOL101c promoter strain) was 100-300 fold, the “lacZ gene expression, YGL039w promoter strain” value (YGL039w promoter) was “increase in lacZ gene expression” and the “inhibition of fungal growth” value (S. cerevisiae mdr mutant; 0.2 μg/ml) was “no detectable inhibition of fungal growth”. The “inhibition of fungal growth” value (S. cerevisiae mdr mutant; 0.9 μM) was “no detectable inhibition of fungal growth”, the “inhibition of fungal growth” value (S. cerevisiae mdr mutant; 2.0 μg/ml) was “maximum inhibition of fungal growth” and the “inhibition of fungal growth” value (S. cerevisiae mdr mutant; 9 μM) was “maximum inhibition of fungal growth”. It also gave an MIC (S. cerevisiae mdr mutant) of 0.2 to 0.9 µM (≈ 0.0447 to 0.201 µg/mL), an MIC (S. cerevisiae mdr mutant; read-out: MIC value) of 0.2 µM (≈ 0.0447 µg/mL) and an inhibition at 100 µM ([1]; 100 μM, within the first 30 minutes, read-out: inhibition of fatty acid synthesis (NADPH oxidation)) of 80 to 90%. It also gave an inhibition at 100 µM ([1]; read-out: FAS-NADPH ox % Inhibition @ 100 μM) of 81%, an IC50 ([1]; read-out: FAS-NADPH ox IC50) of 700 to 1300 nM and an inhibition at 100 µM [2] of 80 to 90%. The “gene induction of OLE1, YOL101c and YGL039w (mRNA)” value [3] was “most highly induced genes”.
For `Clc1ccc(COC(Cn2ccnc2)c2ccc(Cl)cc2Cl)c(Cl)c1` (stereo not drawn) [miconoazole], the “induction of the OLE1 reporter” value (OLE1 promoter) was “induce this reporter”.
`CCCCCCC(=O)CCCCCC/C=C/C[C@@H](O)[C@H](O)[C@@](N)(CO)C(=O)O` [myriocin] was tested, and the “induction of the OLE1 reporter” value (OLE1 promoter) was “induce this reporter”.

Source: patent US20020037495A1, “High throughput screening for inhibitors of fatty acid, ergosterol, sphingolipid, or phospholipid synthesis in fungi” (priority 2000, published 2002)
